# Measured values reported in patent publication US20240109930A1, “TRIAZOLYL-METHYL SUBSTITUTED ALPHA-D-GALACTOPYRANOSIDE DERIVATIVES” (Idorsia Pharmaceuticals Ltd, priority 2021, published 2024).
# How the values were obtained:
# [1] = target: human Gal-3 (hGal-3) (Homo sapiens (Human), UniProt P17931); experiment: Competitive binding assay: biotinylated hGal-3 binding to microplate-adsorbed asialofetuin (ASF); conditions: IC50 values from several measurements given as geomean
# In short: (§1)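 Biotinylated hGal-3 or hGal-1 (preferably cysteine-free Cys→Ser mutant), 300–1000 ng/mL, competes with compound for ASF-coated wells for 3 h at 4 °C. Bound lectin detected with streptavidin-peroxidase (80 ng/mL, 1 h, 4 °C) and ABTS by absorbance; IC50 reported as geomean of several runs.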
# [2] = target: human Gal-1 (hGal-1) (Homo sapiens, UniProt P09382, C131S/C17S/C43S/C61S/C89S); experiment: Competitive binding assay: biotinylated hGal-1 binding to microplate-adsorbed asialofetuin (ASF); conditions: IC50 values from several measurements given as geomean
# In short: as §1
# Chain of human Gal-3 (hGal-3) (P17931 whole entry): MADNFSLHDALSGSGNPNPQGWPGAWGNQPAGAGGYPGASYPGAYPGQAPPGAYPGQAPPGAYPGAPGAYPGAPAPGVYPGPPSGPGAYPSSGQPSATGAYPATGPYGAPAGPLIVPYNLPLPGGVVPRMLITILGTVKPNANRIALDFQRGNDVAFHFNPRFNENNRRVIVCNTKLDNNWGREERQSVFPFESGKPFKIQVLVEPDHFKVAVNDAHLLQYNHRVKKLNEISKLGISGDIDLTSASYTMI
SMILES,IC50 [1] [nM],IC50 [2] [nM]
"CO[C@@H]1[C@@H](n2cc(-c3ccc(F)c(F)c3F)nn2)[C@@H](O)[C@@H](CO)O[C@@H]1Cc1cn(C2(CF)CC2)nn1 [Ex 3.1.46., (2R,3R,4S,5R,6R)-6-((1-(1-(fluoromethyl)cyclopropyl)-1H-1,2,3-triazol-4-yl)methyl)-2-(hydroxymethyl)-5-methoxy-4-(4-(2,3,4-trifluorophenyl)-1H-1,2,3-triazol-1-yl)tetrahydro-2H-pyran-3-ol]",70,400
CO[C@@H]1[C@@H](n2cc(-c3ccc(F)c(F)c3F)nn2)[C@@H](O)[C@@H](CO)O[C@@H]1Cn1cc(C2(C)COC2)nn1 [Ex 3.2.6.],70,580
"CO[C@@H]1[C@@H](n2cc(-c3ccc(Cl)c(F)c3F)nn2)[C@@H](O)[C@@H](CO)O[C@@H]1Cc1cn([C@@H]2CCCC[C@H]2F)nn1 [Example 2.1.81.C, (2R,3R,4S,5R,6R)-4-(4-(4-chloro-2,3-difluorophenyl)-1H-1,2,3-triazol-1-yl)-6-((1-((1R,2R)-2-fluorocyclohexyl)-1H-1,2,3-triazol-4-yl)methyl)-2-(hydroxymethyl)-5-methoxytetrahydro-2H-pyran-3-ol]",60,2920
CO[C@@H]1[C@@H](n2cc(-c3ccc(C)c(F)c3F)nn2)[C@@H](O)[C@@H](CO)O[C@@H]1Cn1cc(C2(CO)CC2)nn1 [Ex 1.2.4.],40,2460
CO[C@@H]1[C@@H](n2cc(-c3ccc(Cl)c(F)c3F)nn2)[C@@H](O)[C@@H](CO)O[C@@H]1Cn1cc(C(C)(C)O)nn1 [Ex 2.2.34.],70,5120
CO[C@@H]1[C@@H](n2cc(-c3ccc(Cl)c(F)c3F)nn2)[C@@H](O)[C@@H](CO)O[C@@H]1Cc1cn(C(C)(C)C(F)(F)F)nn1 [Ex 2.1.56.],50,820
"CO[C@@H]1[C@@H](n2cc(-c3ccc(Cl)c(F)c3F)nn2)[C@@H](O)[C@@H](CO)O[C@@H]1Cc1cn([C@@H]2CCC[C@H]2F)nn1 (relative stereo) [Example 2.1.79.CD, (2R,3R,4S,5R,6R)-4-(4-(4-chloro-2,3-difluorophenyl)-1H-1,2,3-triazol-1-yl)-6-((1-((1R*,2R*)-2-fluorocyclopentyl)-1H-1,2,3-triazol-4-yl)methyl)-2-(hydroxymethyl)-5-methoxytetrahydro-2H-pyran-3-ol]",60,3480
CO[C@@H]1[C@@H](n2cc(-c3ccc(C)c(F)c3F)nn2)[C@@H](O)[C@@H](CO)O[C@@H]1Cc1cn(C(C)(C)CO)nn1 [Ex 1.1.9.],70,44000
CO[C@@H]1[C@@H](n2cc(-c3ccc(Br)c(F)c3F)nn2)[C@@H](O)[C@@H](CO)O[C@@H]1Cc1cn(C2(C(F)(F)F)COC2)nn1 [Ex 4.1.58.],20,1070
"CO[C@@H]1[C@@H](n2cc(-c3ccc(Cl)c(F)c3F)nn2)[C@@H](O)[C@@H](CO)O[C@@H]1Cc1cn(C2(C(F)F)COC2)nn1 [Ex 2.1.53., (2R,3R,4S,5R,6R)-4-(4-(4-chloro-2,3-difluorophenyl)-1H-1,2,3-triazol-1-yl)-6-((1-(3-(difluoromethyl)oxetan-3-yl)-1H-1,2,3-triazol-4-yl)methyl)-2-(hydroxymethyl)-5-methoxytetrahydro-2H-pyran-3-ol [1-(1,2,3-tri-deoxy-2-methoxy-3-[4-(4-chloro-2,3-difluorophenyl)-1H-1,2,3-triazol-1-yl]-α-D-galacto-pyranose)-1-(1-(3-difluoromethyl-3-oxetanyl)-1H-triazol-4-yl)-methane]]",20,420
CO[C@@H]1[C@@H](n2cc(-c3ccc(Cl)c(F)c3F)nn2)[C@@H](O)[C@@H](CO)O[C@@H]1Cn1cc(C2(C)COC2)nn1 [Ex 2.2.6.],30,1170
"CO[C@@H]1[C@@H](n2cc(-c3ccc(Cl)c(F)c3F)nn2)[C@@H](O)[C@@H](CO)O[C@@H]1Cc1cn(C2(C)CC(F)C2)nn1 (stereo partly drawn) [Example 2.1.47.A, (2R,3R,4S,5R,6R)-4-(4-(4-chloro-2,3-difluorophenyl)-1H-1,2,3-triazol-1-yl)-6-((1-((1S,3S)-3-fluoro-1-methylcyclobutyl)-1H-1,2,3-triazol-4-yl)methyl)-2-(hydroxymethyl)-5-methoxytetrahydro-2H-pyran-3-ol]",30,1370
CO[C@@H]1[C@@H](n2cc(-c3ccc(F)c(F)c3F)nn2)[C@@H](O)[C@@H](CO)O[C@@H]1Cn1cc(C2(C)CC2)nn1 [Ex 3.2.23.],80,300
COCC1(n2cc(C[C@H]3O[C@H](CO)[C@H](O)[C@H](n4cc(-c5ccc(Cl)c(F)c5F)nn4)[C@H]3OC)nn2)CC1 [Ex 2.1.7.],60,2950
"CO[C@@H]1[C@@H](n2cc(-c3ccc(Br)c(F)c3F)nn2)[C@@H](O)[C@@H](CO)O[C@@H]1Cc1cn([C@@H]2CC[C@@H]2F)nn1 (relative stereo) [Example 4.1.88.AB, (2R,3R,4S,5R,6R)-4-(4-(4-bromo-2,3-difluorophenyl)-1H-1,2,3-triazol-1-yl)-6-((1-((1R*,2S*)-2-fluorocyclobutyl)-1H-1,2,3-triazol-4-yl)methyl)-2-(hydroxymethyl)-5-methoxytetrahydro-2H-pyran-3-ol]",30,2450
"CO[C@@H]1[C@@H](n2cc(-c3ccc(C)c(F)c3F)nn2)[C@@H](O)[C@@H](CO)O[C@@H]1Cc1cn(C2(C(F)F)COC2)nn1 [Ex 1.1.53., (2R,3R,4S,5R,6R)-4-(4-(2,3-difluoro-4-methylphenyl)-1H-1,2,3-triazol-1-yl)-6-((1-(3-(difluoromethyl)oxetan-3-yl)-1H-1,2,3-triazol-4-yl)methyl)-2-(hydroxymethyl)-5-methoxytetrahydro-2H-pyran-3-ol]",20,520
"CO[C@@H]1[C@@H](n2cc(-c3ccc(Cl)c(F)c3F)nn2)[C@@H](O)[C@@H](CO)O[C@@H]1Cc1cn([C@@H]2CC[C@@H]2F)nn1 (single isomer, unassigned) [Example 2.1.88.B, (2R,3R,4S,5R,6R)-4-(4-(4-chloro-2,3-difluorophenyl)-1H-1,2,3-triazol-1-yl)-6-((1-((1R*,2S*)-2-fluorocyclobutyl)-1H-1,2,3-triazol-4-yl)methyl)-2-(hydroxymethyl)-5-methoxytetrahydro-2H-pyran-3-ol]",30,920
CO[C@@H]1[C@@H](n2cc(-c3ccc(F)c(F)c3F)nn2)[C@@H](O)[C@@H](CO)O[C@@H]1Cc1cn(C23COC(C)(C2)C3)nn1 [Ex 3.1.59.],40,520
CO[C@@H]1[C@@H](n2cc(-c3ccc(Cl)c(F)c3F)nn2)[C@@H](O)[C@@H](CO)O[C@@H]1Cn1cc(C2(O)CCC2)nn1 [Ex 2.2.31.],90,2630
CO[C@@H]1[C@@H](n2cc(-c3ccc(Br)c(F)c3F)nn2)[C@@H](O)[C@@H](CO)O[C@@H]1Cc1cn(C2(CO)CC2)nn1 [Ex 4.1.4.],40,2930
CO[C@@H]1[C@@H](n2cc(-c3ccc(C)c(F)c3F)nn2)[C@@H](O)[C@@H](CO)O[C@@H]1Cc1cn(C2(C)COC2)nn1 [Ex 1.1.6.],40,2210
CO[C@@H]1[C@@H](n2cc(-c3ccc(Cl)c(F)c3F)nn2)[C@@H](O)[C@@H](CO)O[C@@H]1Cc1cn(C2(C(F)(F)F)CCCC2)nn1 [Ex 2.1.67.],40,1030
